In patent US12042485B2, “Methods of minimizing cancer metastasis” (MEDICINOVA, INC., priority 2021, dated 2024):

Tests used:
[1] = target: T1, macrophage inhibitory factor (MIF) (Homo sapiens, UniProt P14174); conditions: Cho et al., PNAS-USA 2010; cited from earlier work
T1 sequence (P14174 2-115 limits assumed): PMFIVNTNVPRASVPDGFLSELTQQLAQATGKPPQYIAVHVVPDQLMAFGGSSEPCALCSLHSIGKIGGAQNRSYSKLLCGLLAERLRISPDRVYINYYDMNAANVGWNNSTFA

[2] = target: PDE 10A1 (Homo sapiens, UniProt Q9Y233); conditions: Gibson et al., Eur. J. Pharmacol. 2006; cited from earlier work
Sequence of PDE 10A1 (Q9Y233 1-779 isoform Q9Y233-1): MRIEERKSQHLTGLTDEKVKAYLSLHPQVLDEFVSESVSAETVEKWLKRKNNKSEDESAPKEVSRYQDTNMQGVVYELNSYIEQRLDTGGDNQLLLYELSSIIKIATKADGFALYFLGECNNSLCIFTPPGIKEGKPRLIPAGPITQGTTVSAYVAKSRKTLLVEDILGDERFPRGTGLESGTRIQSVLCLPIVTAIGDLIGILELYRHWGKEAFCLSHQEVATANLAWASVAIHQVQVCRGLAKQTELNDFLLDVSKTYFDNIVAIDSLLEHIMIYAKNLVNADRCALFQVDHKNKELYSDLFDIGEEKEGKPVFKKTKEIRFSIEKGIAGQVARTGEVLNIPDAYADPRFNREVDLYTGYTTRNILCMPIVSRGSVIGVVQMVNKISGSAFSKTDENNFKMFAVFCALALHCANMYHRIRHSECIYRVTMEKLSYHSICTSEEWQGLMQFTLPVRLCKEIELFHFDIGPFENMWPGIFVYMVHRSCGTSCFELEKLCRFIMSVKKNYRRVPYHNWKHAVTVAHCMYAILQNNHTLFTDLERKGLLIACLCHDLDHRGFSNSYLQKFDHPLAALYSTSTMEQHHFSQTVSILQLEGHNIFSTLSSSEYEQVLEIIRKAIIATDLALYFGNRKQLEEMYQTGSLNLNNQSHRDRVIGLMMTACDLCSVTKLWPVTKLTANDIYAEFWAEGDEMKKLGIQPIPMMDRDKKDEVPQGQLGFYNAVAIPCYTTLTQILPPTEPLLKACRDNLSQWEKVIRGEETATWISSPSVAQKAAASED

[3] = target: toll-like receptor-4 (TLR4) (Homo sapiens, UniProt O00206); conditions: Yang et al., Cell Death and Disease 2016; cited from earlier work
Sequence of toll-like receptor-4 (TLR4) (O00206 24-839, species assumed): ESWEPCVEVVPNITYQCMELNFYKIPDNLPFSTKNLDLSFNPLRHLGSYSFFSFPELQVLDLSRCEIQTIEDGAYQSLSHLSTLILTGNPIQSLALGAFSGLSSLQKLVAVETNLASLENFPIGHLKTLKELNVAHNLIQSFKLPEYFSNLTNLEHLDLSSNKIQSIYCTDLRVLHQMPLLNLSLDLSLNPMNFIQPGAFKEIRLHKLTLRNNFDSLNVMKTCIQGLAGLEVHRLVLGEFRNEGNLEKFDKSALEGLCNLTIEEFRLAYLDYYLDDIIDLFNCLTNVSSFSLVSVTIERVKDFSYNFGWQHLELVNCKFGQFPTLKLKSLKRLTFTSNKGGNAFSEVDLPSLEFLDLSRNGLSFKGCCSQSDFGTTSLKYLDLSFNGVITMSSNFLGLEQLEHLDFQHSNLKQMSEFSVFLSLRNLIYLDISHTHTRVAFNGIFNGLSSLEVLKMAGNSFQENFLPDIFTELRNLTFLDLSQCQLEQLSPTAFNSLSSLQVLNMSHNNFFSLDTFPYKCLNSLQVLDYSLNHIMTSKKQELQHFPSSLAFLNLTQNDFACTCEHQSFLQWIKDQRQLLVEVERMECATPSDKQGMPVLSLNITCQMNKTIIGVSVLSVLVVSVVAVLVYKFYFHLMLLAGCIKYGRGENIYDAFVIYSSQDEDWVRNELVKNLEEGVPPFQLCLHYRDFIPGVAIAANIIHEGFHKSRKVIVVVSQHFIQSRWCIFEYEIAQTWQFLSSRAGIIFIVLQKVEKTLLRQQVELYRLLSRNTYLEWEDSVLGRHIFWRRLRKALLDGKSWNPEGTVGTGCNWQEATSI
Sequence of toll-like receptor-4 (TLR4) (Q9Y6Y9 17-160 partner limits assumed, species assumed): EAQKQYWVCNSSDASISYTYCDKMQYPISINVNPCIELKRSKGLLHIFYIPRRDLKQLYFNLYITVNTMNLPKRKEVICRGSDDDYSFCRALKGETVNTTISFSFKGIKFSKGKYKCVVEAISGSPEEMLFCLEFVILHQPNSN

[4] = Sanftner et al Xenobiotica 2009; cited from earlier work
[5] = test system: PDE 4; conditions: Gibson et al., Eur. J. Pharmacol. 2006; cited from earlier work
[6] = target: PDE 3A (Homo sapiens, UniProt Q14432); conditions: Gibson et al., Eur. J. Pharmacol. 2006; cited from earlier work
Sequence of PDE 3A (Q14432 whole entry): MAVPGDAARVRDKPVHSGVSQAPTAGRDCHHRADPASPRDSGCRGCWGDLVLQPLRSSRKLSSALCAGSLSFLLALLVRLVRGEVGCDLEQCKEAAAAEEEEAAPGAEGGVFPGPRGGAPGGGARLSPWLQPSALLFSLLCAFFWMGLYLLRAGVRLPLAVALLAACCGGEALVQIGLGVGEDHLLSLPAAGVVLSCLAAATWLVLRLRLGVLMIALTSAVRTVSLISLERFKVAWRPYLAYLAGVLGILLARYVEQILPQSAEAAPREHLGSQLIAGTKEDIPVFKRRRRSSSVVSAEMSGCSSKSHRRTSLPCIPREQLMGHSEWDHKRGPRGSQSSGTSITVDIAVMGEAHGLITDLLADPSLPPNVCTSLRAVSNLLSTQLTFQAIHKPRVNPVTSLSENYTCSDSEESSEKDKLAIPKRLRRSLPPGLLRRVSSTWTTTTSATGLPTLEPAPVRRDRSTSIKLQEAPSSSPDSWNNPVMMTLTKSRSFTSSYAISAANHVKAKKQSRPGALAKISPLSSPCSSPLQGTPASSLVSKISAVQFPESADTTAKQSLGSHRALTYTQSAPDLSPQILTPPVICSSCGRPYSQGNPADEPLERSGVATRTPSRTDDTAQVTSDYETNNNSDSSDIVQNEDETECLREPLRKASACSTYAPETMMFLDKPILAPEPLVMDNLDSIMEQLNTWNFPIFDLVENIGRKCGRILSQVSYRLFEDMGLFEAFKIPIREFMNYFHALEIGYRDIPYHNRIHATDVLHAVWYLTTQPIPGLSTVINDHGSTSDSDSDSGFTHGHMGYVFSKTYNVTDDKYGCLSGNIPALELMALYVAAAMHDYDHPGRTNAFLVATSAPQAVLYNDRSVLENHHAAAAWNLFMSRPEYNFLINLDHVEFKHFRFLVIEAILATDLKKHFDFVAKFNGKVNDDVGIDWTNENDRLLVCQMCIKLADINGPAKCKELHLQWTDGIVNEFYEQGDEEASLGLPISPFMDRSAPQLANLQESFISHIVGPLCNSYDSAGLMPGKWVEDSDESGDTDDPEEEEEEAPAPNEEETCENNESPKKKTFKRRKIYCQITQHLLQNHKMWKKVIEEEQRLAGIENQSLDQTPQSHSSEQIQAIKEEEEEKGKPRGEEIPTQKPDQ

[7] = test system: MIF; experiment: plasma level of MIF after ibudilast; conditions: found by the inventors; no data given
[8] = target: PDE 11A1 (Homo sapiens, UniProt Q9HCR9); conditions: Gibson et al., Eur. J. Pharmacol. 2006; cited from earlier work
Sequence of PDE 11A1 (Q9HCR9 445-933): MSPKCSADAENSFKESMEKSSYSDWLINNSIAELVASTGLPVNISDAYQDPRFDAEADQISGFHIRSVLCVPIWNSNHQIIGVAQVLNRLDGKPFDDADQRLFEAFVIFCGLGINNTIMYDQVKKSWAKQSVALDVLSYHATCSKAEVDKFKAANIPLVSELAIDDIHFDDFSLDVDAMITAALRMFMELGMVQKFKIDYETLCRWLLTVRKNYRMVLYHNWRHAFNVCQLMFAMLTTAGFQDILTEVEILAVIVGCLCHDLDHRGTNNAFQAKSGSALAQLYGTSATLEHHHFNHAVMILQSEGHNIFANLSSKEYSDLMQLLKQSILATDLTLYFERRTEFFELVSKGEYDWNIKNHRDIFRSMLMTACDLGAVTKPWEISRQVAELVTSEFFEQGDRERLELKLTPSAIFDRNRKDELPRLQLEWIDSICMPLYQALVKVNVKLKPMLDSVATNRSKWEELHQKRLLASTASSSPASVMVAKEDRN

SMILES: CC(C)C(=O)c1c(C(C)C)nn2ccccc12 [ibudilast, 2-methyl-1-(2-(1-methylethyl)pyrazolo(1,5-a)pyridin-3-yl)1-propanone]
- inhibition of HPP tautomerase activity of MIF [1]: allosteric inhibitor
- inhibition of PDE 10A1 [2]: selective inhibitor
- TLR4 antagonistic activity [3]: antagonistic activity
- CNS penetration [4]: good CNS penetration
- inhibition of PDE 4 [5]: selective inhibitor
- inhibition of PDE 3A [6]: selective inhibitor
- plasma level of MIF [7]: lowers
- inhibition of PDE 11A1 [8]: selective inhibitor
